Positions of bridges follow the written chain, without caps; N, C: chain ends. Residues, ends and D or L forms follow the SMILES beside them. No end group written: not given here.
Tests used:
rat ASIC1a channel = target: T1, rat ASIC1a channel (Rattus norvegicus, UniProt P55926); experiment: Two-electrode voltage clamp, rat ASIC1a in X. laevis oocytes; type: cell-based; details: pH 5.5 stimulus, mean ± S.E.M., 5 cells
T1 construct: expressed in transfected cells; host or cells: Xenopus laevis oocytes injected with mRNA made from a pCI-rASIC1a plasmid
T1 sequence (P55926 1-526): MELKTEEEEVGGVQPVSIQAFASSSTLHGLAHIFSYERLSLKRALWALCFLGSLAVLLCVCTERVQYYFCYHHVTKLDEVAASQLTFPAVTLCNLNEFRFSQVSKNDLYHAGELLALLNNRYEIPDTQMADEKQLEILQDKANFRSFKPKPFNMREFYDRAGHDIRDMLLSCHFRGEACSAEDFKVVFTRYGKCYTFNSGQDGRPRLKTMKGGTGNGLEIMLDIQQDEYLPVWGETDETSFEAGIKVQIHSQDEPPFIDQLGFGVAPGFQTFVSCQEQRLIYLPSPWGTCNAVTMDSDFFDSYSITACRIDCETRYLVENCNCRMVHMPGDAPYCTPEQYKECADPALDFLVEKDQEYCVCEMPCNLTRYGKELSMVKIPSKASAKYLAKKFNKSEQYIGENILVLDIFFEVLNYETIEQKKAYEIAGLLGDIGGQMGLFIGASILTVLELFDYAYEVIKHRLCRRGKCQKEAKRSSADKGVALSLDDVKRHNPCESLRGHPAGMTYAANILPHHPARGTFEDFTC
Experimental: (§1) Figure 3 The effect of mutant peptides S16K and A23K on rat ASIC1a and ASIC3 channels. […] (B) Dose–response curves for the inhibitory effect of mutant peptides on ASIC1a. Each data point represents data from 5 cells. (C) Representative current traces of Ugr9-1, S16K, and A23K at a concentration of 12.5 µM on ASIC3. […] Each point represents data from 5 cells. The depicted currents were induced by a pH 5.5 stimulus following a conditioning pH of 7.4, with peptides applied for 30 s before the pH stimulus. The holding potential (Vh) was −50 mV, and the time interval between applications ranged from 1 to 2 min. Data are presented as mean ± S.E.M.
(§2) A small portion of the ovary was isolated from frogs under anesthesia induced by a 0.17% solution of procaine methanesulphonate (MS222) (Sigma), followed by treatment with collagenase (1 mg/mL) at room temperature for 2 h. Oocytes at stages IV and V, devoid of follicular membranes, were transferred to ND-96 medium (containing 96 mM NaCl, 5 mM HEPES, 2 mM KCl, 1.8 mM CaCl2, 1 mM MgCl2, pH 7.4). mRNA synthesis was performed from pcDNA3.1 vectors (Invitrogen, Carlsbad, CA, USA) containing the rat ASIC3 gene, as well as pCI vectors containing genes for rat ASIC1a, its mutant analogues, and ASIC1b. mRNA (2.5–10 ng) was then injected into the oocytes. For the ASIC1a/3 heteromeric channels, the mRNA encoding the ASIC1a and ASIC3 subunits were injected in a 1:5 ratio, respectively. Subsequently, the oocytes were incubated for 2–3 days at a temperature of 17–19 °C in ND96 medium supplemented with gentamicin and streptomycin (20 µg/mL each).
(§3) Whole-cell electrophysiological recordings of ASIC channels were conducted using a two-electrode voltage-clamp setup. Microelectrodes were filled with 3 M KCl. Recordings from oocytes were carried out at a holding potential of −50 mV, with data filtered at 10 Hz and sampled at a rate of 100 Hz using an L780M ADC (LCard, Moscow, Russia). The synchronized delivery of solutions into the chamber and recording of electrophysiological results were carried out using in-house software v.2. Activation of ASIC channels occurred through rapid pH changes in the solution, achieved by replacing the working solution in the chamber with ND96-based solutions at varying pH levels. Specifically, HEPES was substituted with 10 mM MES for pH 5.5–6.5 and MOPS for pH 6.7–7.0.
(§4) Fresh peptide solutions were meticulously prepared in ND96 buffer with a pH of 7.43 immediately before experiments, with strict control over the pH levels. Peptides were applied for 30 s at a conditioning pH of 7.43 before acid stimulation of the channel. The interval between applications was maintained at a minimum of 1.5 to 2 min.
(§5) Electrophysiological data analysis was conducted using OriginPro 2018 software (OriginLab, Northampton, MA, USA). Dose–response relationships for Ugr9a-1, S16K, and A23K peptides were fitted using a Hill function: F1(x) = A − A/(1 + (x/IC50)^nH), where F1(x) represents the amplitude of the current at concentration x of the peptide, A is the maximum amplitude of the current, IC50 is the half-maximum inhibitory concentration of the peptide, and nH is the Hill coefficient.

rat ASIC3 channel = target: T2, rat ASIC3 channel (Rattus norvegicus, UniProt O35240); experiment: Two-electrode voltage clamp, rat ASIC3 in X. laevis oocytes; type: cell-based; details: pH 5.5 stimulus, mean ± S.E.M., 5 cells
T2 construct: expressed in transfected cells; host or cells: Xenopus laevis oocytes injected with mRNA made from pcDNA3.1-rat ASIC3
T2 sequence (O35240 1-533): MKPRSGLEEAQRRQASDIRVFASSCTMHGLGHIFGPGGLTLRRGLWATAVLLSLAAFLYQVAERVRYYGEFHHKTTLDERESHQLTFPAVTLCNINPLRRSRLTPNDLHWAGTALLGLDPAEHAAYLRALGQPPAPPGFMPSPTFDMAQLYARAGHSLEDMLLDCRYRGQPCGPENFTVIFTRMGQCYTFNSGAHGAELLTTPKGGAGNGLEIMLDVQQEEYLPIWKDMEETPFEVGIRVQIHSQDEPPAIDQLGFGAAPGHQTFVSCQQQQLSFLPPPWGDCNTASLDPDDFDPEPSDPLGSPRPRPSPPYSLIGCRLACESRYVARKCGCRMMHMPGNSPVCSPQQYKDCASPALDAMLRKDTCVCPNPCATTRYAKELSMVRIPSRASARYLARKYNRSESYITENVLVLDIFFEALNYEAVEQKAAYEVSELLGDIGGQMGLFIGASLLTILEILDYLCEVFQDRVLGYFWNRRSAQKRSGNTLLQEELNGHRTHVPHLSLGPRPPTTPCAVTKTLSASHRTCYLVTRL
Experimental: as §1, §2, §3, §4, §5

[1] = cited from earlier work; for analgesic effect on thermal hypersensitivity caused by inflammation: ref [31],[32]; for analgesic effects: ref [16],[17]
Text: Selective ligands targeting specific ASIC isoforms are invaluable for structural and functional investigations. Peptide ligands sourced from various animal venoms have emerged as such tools. […] Bot ... || The 29-amino acid peptide Ugr9a-1, isolated from the venom of the northern sea anemone Urticina grebelnyi, represents a structural class of toxins termed “boundless β-hairpin”. […] While the significant involvement of ASIC3 channels in acid-induced, chronic neuropathic and inflammatory pain has been extensively reported, the role of ASIC1a remains less clear.

ASIC1a channel = details: cited from earlier work
Text: Selective ligands targeting specific ASIC isoforms are invaluable for structural and functional investigations. Peptide ligands sourced from various animal venoms have emerged as such tools. […] Bot ...

[2] = tested on: ASIC1a E357A mutant channel; details: ref [23],[28]; cited from earlier work
Text: (§6) Electrophysiological experimentation confirmed the activity of recombinant S16K and A23K mutants against rat ASIC1a channels. […] This fact was in good agreement with molecular docking results that predicted tighter interactions of the lysine residue at position 23 with Asp355 and Glu357 residues of the channel. […] To confirm the critical role of th ...

[3] = tested on: ASIC1a D355A mutant channel; details: ref [23],[28]; cited from earlier work
Text: as §6

[4] = target: rat ASIC3 channel (homomeric) (rat) (UniProt O35240)

## CC[C@H](C)[C@H](N)C(=O)N[C@@H](CO)C(=O)N[C@H](C(=O)N[C@@H](CC(=O)O)C(=O)N1CCC[C@H]1C(=O)N1CCC[C@H]1C(=O)N[C@H]1CSSC[C@@H]2NC(=O)[C@H](CC(N)=O)NC(=O)CNC(=O)[C@H](CCCCN)NC(=O)CNC(=O)[C@H](CC(=O)O)NC(=O)[C@H](CCCNC(=N)N)NC(=O)[C@H](Cc3c[nH]cn3)NC(=O)[C@H](Cc3ccc(O)cc3)NC(=O)[C@H](CSSC[C@@H](C(=O)NCC(=O)N[C@@H](C)C(=O)N[C@H](C(=O)O)C(C)C)NC(=O)CNC(=O)[C@H](Cc3ccc(O)cc3)NC(=O)[C@H](C)NC(=O)[C@H](CC(=O)O)NC(=O)[C@H](Cc3ccc(O)cc3)NC(=O)[C@H](C(C)C)NC2=O)NC(=O)[C@H](Cc2ccccc2)NC(=O)[C@H](CCCNC(=N)N)NC1=O)[C@@H](C)CC [S16K] (H-ISIDPPCRFCYHRDGKGNCVYDAYGCGAV-OH; disulfide 7-19, 10-26)
Rat ASIC1a channel; inhibition of rat ASIC1a, conditioning pH 7.4
  Hill slope (nH): 2.86 ± 0.09
Rat ASIC1a channel; rat ASIC1a, X. laevis oocytes, TEVC, Vh −50 mV, conditioning pH 7.4, peptide 30 s before stimulus, read-out: half-maximal inhibitory concentration (IC50)
  IC50: 22.7 ± 0.42 µM
Rat ASIC3 channel; inhibition of rat ASIC3, conditioning pH 7.4
  nH: 2.16 ± 0.24
Rat ASIC3 channel; rat ASIC3, X. laevis oocytes, TEVC, Vh −50 mV, conditioning pH 7.4, peptide 30 s before stimulus
  IC50: 35.8 ± 4.03 µM

## COc1cc2c(cc1O)[C@H](Cc1ccc(Oc3cc(C[C@@H]4NCCc5cc(OC)c(O)cc54)ccc3O)cc1)NCC2 [lindoldhamine]
[1]
  analgesic effect on thermal hypersensitivity caused by inflammation: substantial analgesic effects

## O=C(O)C[C@H](C(=O)O)[C@@H](OC(=O)C1=Cc2cc(O)c(O)cc2[C@@H](c2ccc(O)c(O)c2)[C@@H]1C(=O)O[C@@H](C(=O)O)[C@H](CC(=O)O)C(=O)O)C(=O)O [sevanol]
[1]
  analgesic effect on thermal hypersensitivity caused by inflammation: substantial analgesic effects

## Mamb-1 (LKCYQHGKVVTCHRDMKFCYHNTGMPFRNLKLILQGCSSSCSETENNKCCSTDRCNK; ends and bridges not checked; cysteine pairing not given here; UniProt P0DKR6 22-78, looked up)
[1]
  analgesic effects: demonstrate analgesic effects
ASIC1a channel; ref [14],[15]
  modulation of ASIC1-containing channels: negatively modulates ASIC1-containing channels but by stabilizing the closed state
[2]
  effect of E357A channel mutation on inhibitory potential: did not substantially alter the inhibitory potential
[3]
  effect of D355A channel mutation on inhibitory potential: did not substantially alter the inhibitory potential

## PcTx1 (EDCIPKWKGCVNRHGDCCEGLECWKRRRSFEVCVPKTPKT; ends and bridges not checked; cysteine pairing not given here; UniProt P60514 1-40, looked up)
[1]
  analgesic effects: demonstrate analgesic effects
ASIC1a channel; ref [11],[12],[13]
  modulation of ASIC1a: selectively modulates ASIC1a and ASIC1a-containing channels by stabilizing the desensitized state

## Ugr9a-1 peptide from the venom of the sea anemone Urticina grebelnyi
[4]
  IC50 of inhibition of the pH 5.5-evoked current of rASIC3, two-electrode voltage clamp on X. laevis oocytes: 14.2 µM

Source: article PMC11432795, “Mutagenesis of the Peptide Inhibitor of ASIC3 Channel Introduces Binding to Thumb Domain of ASIC1a but Reduces Analgesic Activity” (Marine Drugs, 2024)
